The values that follow are results of earlier work, collected in patent publication US20240000752A1, “MICROSUSPENSION AGAINST PARASITES AND METHOD FOR OBTAINING SAME” (Ipanema Industria de Productos Veterinarios Ltda, priority 2020, published 2024).

Molecules are shown by their SMILES.

Data set [1] has as its system Ostertagia ostertagi Cooperia pectinata, Cooperia punctata, Trichostrongylus axei, Trichostrongylus colubriformis, Oesophagostomum radiatum, Haemonchus placei ….

`CCC[S+]([O-])c1ccc2[nH]c(NC(=O)OC)nc2c1` (stereo not drawn) [albendazole sulfoxide]: the pka is recorded as 7.8 and the solubility in water entry was “low solubility in water”.
`CO[C@H]1C[C@H](O[C@H]2[C@H](C)O[C@@H](O[C@@H]3/C(C)=C/C[C@@H]4C[C@@H](C[C@]5(C=C[C@H](C)[C@@H](C6CCCCC6)O5)O4)OC(=O)[C@@H]4C=C(C)[C@@H](O)[C@H]5OC/C(=C\C=C\[C@@H]3C)[C@]54O)C[C@@H]2OC)O[C@@H](C)[C@@H]1O` [doramectin]: in data set [1], the “efficacy against endoparasites and ectoparasites” value is “effective”.
